Legend:
Assay in all cases: KinaseProfiler Assay
CaMKIV(h) = target: T1, CaMKIV(h) (Homo sapiens, UniProt Q16566)
T1 sequence (Q16566 1-473): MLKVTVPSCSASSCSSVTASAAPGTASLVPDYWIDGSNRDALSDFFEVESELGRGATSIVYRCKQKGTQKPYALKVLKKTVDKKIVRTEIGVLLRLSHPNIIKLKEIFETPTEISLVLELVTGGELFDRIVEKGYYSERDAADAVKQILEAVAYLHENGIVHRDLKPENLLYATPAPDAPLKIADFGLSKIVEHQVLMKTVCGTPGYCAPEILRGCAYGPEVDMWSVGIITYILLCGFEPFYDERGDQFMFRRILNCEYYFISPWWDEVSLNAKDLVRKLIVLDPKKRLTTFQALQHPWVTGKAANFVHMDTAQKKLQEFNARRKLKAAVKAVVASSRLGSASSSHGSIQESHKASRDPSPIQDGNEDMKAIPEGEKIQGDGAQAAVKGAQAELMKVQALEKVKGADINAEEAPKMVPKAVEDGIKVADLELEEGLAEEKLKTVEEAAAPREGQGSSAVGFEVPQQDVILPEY

Haspin(h) = target: T2, Haspin(h) (Homo sapiens, UniProt Q8TF76)
T2 sequence (Q8TF76 1-798): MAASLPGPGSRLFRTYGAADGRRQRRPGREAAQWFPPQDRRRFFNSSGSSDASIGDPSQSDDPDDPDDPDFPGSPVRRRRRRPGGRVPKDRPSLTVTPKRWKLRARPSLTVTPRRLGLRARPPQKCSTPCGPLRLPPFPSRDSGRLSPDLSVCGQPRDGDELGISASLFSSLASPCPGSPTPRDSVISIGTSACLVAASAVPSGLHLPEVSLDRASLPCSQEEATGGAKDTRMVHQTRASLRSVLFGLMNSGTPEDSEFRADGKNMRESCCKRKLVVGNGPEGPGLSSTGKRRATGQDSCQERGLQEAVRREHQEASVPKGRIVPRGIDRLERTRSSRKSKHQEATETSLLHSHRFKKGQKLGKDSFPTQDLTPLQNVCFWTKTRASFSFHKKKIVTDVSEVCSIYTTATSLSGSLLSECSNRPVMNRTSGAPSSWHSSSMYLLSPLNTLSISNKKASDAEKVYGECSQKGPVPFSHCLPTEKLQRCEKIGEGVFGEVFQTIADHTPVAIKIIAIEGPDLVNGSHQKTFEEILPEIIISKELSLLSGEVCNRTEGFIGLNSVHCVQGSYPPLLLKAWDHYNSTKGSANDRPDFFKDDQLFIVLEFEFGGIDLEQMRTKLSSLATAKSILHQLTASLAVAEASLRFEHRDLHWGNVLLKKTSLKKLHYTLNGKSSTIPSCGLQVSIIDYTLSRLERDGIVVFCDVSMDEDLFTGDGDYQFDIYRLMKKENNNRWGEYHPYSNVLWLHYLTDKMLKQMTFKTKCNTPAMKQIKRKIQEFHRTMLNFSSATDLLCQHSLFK

IKKβ(h) = target: T3, IKKβ(h) (Homo sapiens, UniProt O14920)
T3 sequence (O14920 1-756): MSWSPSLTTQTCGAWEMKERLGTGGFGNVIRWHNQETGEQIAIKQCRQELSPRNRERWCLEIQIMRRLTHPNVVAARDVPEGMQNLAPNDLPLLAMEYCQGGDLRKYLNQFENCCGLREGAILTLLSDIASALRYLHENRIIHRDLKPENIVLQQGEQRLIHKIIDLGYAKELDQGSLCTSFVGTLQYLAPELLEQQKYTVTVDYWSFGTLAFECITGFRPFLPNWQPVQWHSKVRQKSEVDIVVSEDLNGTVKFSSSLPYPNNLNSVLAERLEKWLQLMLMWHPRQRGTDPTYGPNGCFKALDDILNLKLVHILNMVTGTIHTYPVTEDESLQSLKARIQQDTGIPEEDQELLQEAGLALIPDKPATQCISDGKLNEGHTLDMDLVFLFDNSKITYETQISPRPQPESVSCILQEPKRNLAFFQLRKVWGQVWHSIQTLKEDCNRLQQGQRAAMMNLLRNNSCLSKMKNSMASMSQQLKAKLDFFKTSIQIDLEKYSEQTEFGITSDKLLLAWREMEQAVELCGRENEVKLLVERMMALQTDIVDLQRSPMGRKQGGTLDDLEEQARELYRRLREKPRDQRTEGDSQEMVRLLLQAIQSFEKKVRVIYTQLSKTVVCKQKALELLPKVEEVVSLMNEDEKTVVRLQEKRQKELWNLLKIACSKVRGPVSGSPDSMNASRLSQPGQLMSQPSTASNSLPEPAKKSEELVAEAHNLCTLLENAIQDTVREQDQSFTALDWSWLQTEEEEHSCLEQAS

CC(C)CCC(=O)[C@]1(O)C(O)=C(C(=O)C(C)C)C(=O)[C@H]1CCC(C)C [TH2, tetrahydroiso-cohumulone]
kinase inhibition (CaMKIV(h); 1 μg/ml): 117% of control | kinase inhibition (CaMKIV(h); 5 μg/ml): 126% of control | kinase inhibition (CaMKIV(h); 25 μg/ml): 86% of control | kinase inhibition (CaMKIV(h); 50 μg/ml): 69% of control | kinase inhibition (CaMKIV(h); 100 μg/ml): 52% of control | kinase inhibition (Haspin(h); 1 μg/ml): 105% of control | kinase inhibition (Haspin(h); 5 μg/ml): 95% of control | kinase inhibition (Haspin(h); 25 μg/ml): 90% of control | kinase inhibition (Haspin(h); 50 μg/ml): 76% of control | kinase inhibition (Haspin(h); 100 μg/ml): 49% of control | kinase inhibition (IKKβ(h); 1 μg/ml): 111% of control | kinase inhibition (IKKβ(h); 5 μg/ml): 107% of control | kinase inhibition (IKKβ(h); 25 μg/ml): 94% of control | kinase inhibition (IKKβ(h); 50 μg/ml): 77% of control | kinase inhibition (IKKβ(h); 100 μg/ml): 76% of control

From patent US20100137449A1, “SUBSTITUTED 1,3-CYCLOPENTADIONE MULTI-TARGET PROTEIN KINASE MODULATORS OF CANCER, ANGIOGENESIS AND THE INFLAMMATORY PATHWAYS ASSOCIATED THEREWITH” (METAPROTEOMICS, LLC, priority 2007, published 2010)
